Reference: patent US20090186907A1, “Pyrazinones As Cellular Proliferation Inhibitors” (E.I. DuPont De Nemours and Company, priority 2006, published 2009)

Experiments:
[1] = tested on: rhabdomyosarcoma (RD) cells; experiment: Assay for inhibition of cell proliferation (MTT), rhabdomyosarcoma cells; type: cell-based, human; conditions: for IC50: rhabdomyosarcoma (RD) cells, MTT, 96 h incubation; for RD Ratio (paclitaxel/compound): ratio of paclitaxel IC50 to compound IC50, RD cells
Procedure: (§1) Human rabdomyosarcoma (RD) and mouse neuroblastoma (N1E115) cell lines were obtained from the American Type Culture Collection (ATCC, Rockville, Md.). The RD cells were grown in Dulbecco's modified eagle medium (DMEM) supplemented with 4 mM glutamine, containing 10% fetal bovine serum (ATCC #30-2020) and supplemented with 1% penicillin and 1% streptomycin. When confluent, the cells were maintained by passage (about once per week) until needed. The N1E115 line was also cultured in DMEM with 4 mM glutamine containing 10% newborn calf serum (Gibco, Grand Island, N.Y.) and likewise maintained.
(§2) The proliferation of rhabdomyosarcoma cells was determined using a cell proliferation assay kit based on the formation of insoluble formazan crystals from 3-(4,5-dimethylthiazol-2-yl)-2,5-diphenyltetrazolium bromide (MTT). The rhabdomyosarcoma cells were cultured to a density of 10^5 cells per mL. The cell culture (100 μL) was dispensed into wells of a 96-well plate to 10^4 cells per well. The plate was incubated at 37° C. for 3 h until the cells firmly attached to the well surfaces.
(§3) A second 96-well round bottom plate was made up containing the test compounds, serially diluted to cover the concentration range of interest using the DMEM medium plus antibiotics. The final concentration of DMSO in which the compounds were initially dissolved was maintained at a constant 0.5% in each well and the volume of the compounds in the plate was 220 μL. Following the 3 h incubation the medium was removed from the plate containing the cells and replaced with 200 μL of the solutions containing the compounds. The cells were incubated for a further 96 h before the assessment of growth inhibition using MTT.
(§4) The cells were left bathing in 100 μL of the saline solution to which was added 100 μL of MTT in saline (12 mM). Incubation was continued for 4 h at 37° C. to produce the blue formazan color which was quantified by optical density measurements at 570 nm. Background correction of all test wells was performed by subtraction of the yellow MTT solution color measured at 570 nm in cell-free wells. The data were normalized to solvent only control wells.

[2] = tested on: neuroblastoma (N1E115) cells; experiment: Assay for inhibition of cell proliferation (MTT), neuroblastoma cells; type: cell-based, mouse; conditions: for IC50: neuroblastoma (N1E115) cells, MTT; for N1E115 Ratio (paclitaxel/compound): ratio of paclitaxel IC50 to compound IC50, N1E115 cells
Procedure: as §1, §2, §3, §4

SMILES	melting point	IC50 ([1]; Homo sapiens)	IC50 ([2]; Mus musculus, N1E-115)	IC50 [1]	IC50 [2]	RD Ratio (paclitaxel/compound) [1]	N1E115 Ratio (paclitaxel/compound) [2]
Cc1nc(-n2cccn2)c(=O)n(CC(C)C)c1-c1c(F)cccc1F [Compound 149, 5-Methyl-6-(2,6-difluorophenyl)-1-(2-methylpropyl)-3-(1H-pyrazol-1-yl)-2(1H)-pyrazinone]	105 to 106 °C						
COc1ccc(Cn2c(-c3c(F)cccc3F)c(Cl)nc(-n3cccn3)c2=O)cc1 [Compound 271, 5-Chloro-6-(2,6-difluorophenyl)-1-[(4-methoxyphenyl)methyl]-3-(1H-pyrazol-1-yl)-2(1H)-pyrazinone]	235 to 236 °C						
CC(C)Cn1c(-c2ccc(F)cc2Cl)c(Cl)nc(-n2cccn2)c1=O [Compound 53, 5-Chloro-6-(2-chloro-4-fluorophenyl)-1-(2-methylpropyl)-3-(1H-pyrazol-1-yl)-2(1H)-pyrazinone]	137 to 139 °C	230 nM	700 nM			0.07	0.13
CC[C@H](C)Cn1c(-c2c(F)cc(OCCCNC)cc2F)c(Cl)nc(-n2ccc(C)n2)c1=O [Compound 494, 5-chloro-6-[2,6-difluoro-4-[3-(methylamino)propoxy]phenyl]-1-[(2S)-2-methylbutyl]-3-(3-methyl-1H-pyrazol-1-yl)-2(1H)-pyrazinone]		0.4 nM	1.3 nM			42.50	67.69
CC[C@H](C)Cn1c(-c2c(F)cc(OCCN(C)C)cc2F)c(Cl)nc(-n2cccn2)c1=O [Compound 483]				39.7 nM	81 nM	0.43	1.09
CC[C@H](C)Cn1c(-c2c(F)cc(OC)cc2F)c(Cl)nc(-n2ccc(C)n2)c1=O [Compound 504]				16.3 nM	102 nM	1.04	0.86
O=c1c(-n2cccn2)nc(Cl)c(-c2c(F)cc(F)cc2F)n1CC1CC1 [Compound 460]				90 nM	170 nM	0.19	0.52
CC[C@H](C)Cn1c(-c2c(F)cc(OCCCN(C)C(C)=O)cc2F)c(Cl)nc(-n2cccn2)c1=O [Compound 499]				10 nM	12 nM	1.70	7.33

Further lines, with some results ahead:

melting point	IC50 ([1]; Homo sapiens)	IC50 ([2]; Mus musculus, N1E-115)	IC50 [1]	IC50 [2]	SMILES	RD Ratio (paclitaxel/compound) [1]	N1E115 Ratio (paclitaxel/compound) [2]
112 to 113 °C	20 nM	75 nM			CC[C@H](C)Cn1c(-c2c(F)cc(F)cc2F)c(Cl)nc(-n2cccn2)c1=O [Compound 155, 5-Chloro-1-[(2S)-2-methylbutyl)-3-(1H-pyrazol-1-yl)-6-(2,4,6-trifluorophenyl)-2(1H)-pyrazinone]	0.85	1.17
100 to 102 °C					CC(C)Cn1c(-c2c(F)cccc2F)c(Cl)nc(C#N)c1=O [Compound 5, 6-Chloro-5-(2,6-difluorophenyl)-3,4-dihydro-4-(2-methylpropyl)-3-oxopyrazinecarbonitrile]		
73 to 77 °C					CCC(C)Cn1c(-c2ccc(F)cc2F)c(C)nc(C#N)c1=N (stereo not drawn) [Compound 471, 5-(2,4-Difluorophenyl)-3,4-dihydro-3-imino-6-methyl-4-(2-methylbutyl)pyrazinecarbonitrile]		
147 to 149 °C					O=c1c(-n2cccn2)nc(Cl)c(-c2c(F)cc(F)cc2F)n1CC(F)(F)C(F)(F)F [Compound 468, 5-Chloro-1-(2,2,3,3,3-pentafluoropropyl)-3-(1H-pyrazol-1-yl)-6-(2,4,6-trifluorophenyl)-2(1H)-pyrazinone]		
191 to 193 °C					CC(C)Cn1c(-c2c(F)cccc2F)c(Cl)nc(-c2cn(C)cn2)c1=O [Compound 85, 5-Chloro-6-(2,6-difluorophenyl)-1-(2-methylpropyl)-3-(1-methyl-1H-imidazol-4-yl)-2(1H)-pyrazinone]		
91 to 92 °C					CC(C)Cn1c(-c2c(F)cccc2F)cnc(-n2cccn2)c1=O [Compound 342, 6-(2,6-Difluorophenyl)-1-(2-methylpropyl)-3-(1H-pyrazol-1-yl)-2(1H)-pyrazinone]		
	27.5 nM	151 nM			CC(Cn1c(-c2c(F)cc(OCCCN(C)C)cc2F)c(Cl)nc(-n2cccn2)c1=O)C(F)(F)F (stereo not drawn) [Compound 485, 5-chloro-6-[4-[3-(dimethylamino)propoxy]-2,6-difluorophenyl]-3-(1H-pyrazol-1-yl)-1-(3,3,3-trifluoro-2-methylpropyl)-2(1H)-pyrazinone]	0.62	0.58
			77 nM	180 nM	Cc1ccn(-c2nc(Cl)c(-c3c(F)cc(OCCCN(C)C)cc3F)n(CC(C)C)c2=O)n1 [Compound 497]	0.22	0.49
